The source of these data is ChEMBL document CHEMBL4373744, “Modifying the lipophilic part of phenylthiazole antibiotics to control their drug-likeness” (Eur J Med Chem, 2020).

Test [1] concerns Escherichia coli. Kind of test: Antimicrobial activity against Escherichia coli BW25113 by broth liquid microdilution method. The test is classed as functional. A general note: In broth dilution the organism is exposed to a series of concentrations in liquid medium.
The test system of test [2] is Escherichia coli. Put plainly: Antimicrobial activity against Escherichia coli JW55031 harboring deltatolC mutant by broth liquid microdilution method. Type of test: functional.
Another test has as its system Staphylococcus aureus. Put plainly: microbe, parasite or virus in culture. The conditions noted are these: NRS384.

Each structure is given as a SMILES string. Values after ≈ are worked out from the molar mass of the structure shown.

Description for Staphylococcus aureus: Antimicrobial activity against methicillin-resistant Staphylococcus aureus NRS384 by broth liquid microdilution method

In the case of `C/C(=N\NC(=N)N)c1sc(-c2ccc(OCCCCCN3CCOCC3)cc2)nc1C`, the MIC is over 64 mg/L against Escherichia coli [1], 32 mg/L (≈ 72 µM) in the test with Escherichia coli [2] and 32 mg/L (≈ 72 µM) against Staphylococcus aureus.
Turning to `C/C(=N\NC(=N)N)c1sc(-c2ccc(OCCCCN3CCSCC3)cc2)nc1C`, the MIC in the test on Escherichia coli [1], in the test with Escherichia coli [2] and in the test on Staphylococcus aureus was over 64 mg/L each time.
Turning to `C/C(=N\NC(=N)N)c1sc(-c2ccc(OCCCCCN3CCN(C)CC3)cc2)nc1C`, the MIC in the test with Escherichia coli [1], in the test on Escherichia coli [2] and with Staphylococcus aureus was over 64 mg/L in each case.
Turning to `C/C(=N\NC(=N)N)c1sc(-c2ccc(OCCCCN3CCC(C)CC3)cc2)nc1C`, the values for the MIC in the test on Escherichia coli [1], in the test on Escherichia coli [2] and in the test on Staphylococcus aureus were over 64 mg/L, 32 mg/L (≈ 72.3 µM) and 32 mg/L (≈ 72.3 µM), respectively.
For `C/C(=N\NC(=N)N)c1sc(-c2ccc(C#CCCN3CCC4CCCCC4C3)cc2)nc1C` (configuration not stated), the MIC against Escherichia coli [1], against Escherichia coli [2] and with Staphylococcus aureus was over 64 mg/L in each case.
Regarding `C/C(=N\NC(=N)N)c1sc(-c2ccc(OCCCCCN3CCSC3)cc2)nc1C`, the MIC against Escherichia coli [1], against Escherichia coli [2] and with Staphylococcus aureus was over 64 mg/L in each case.
For the compound `C/C(=N\NC(=N)N)c1sc(-c2ccc(C#CCCN3CCCCC3C)cc2)nc1C` (configuration not stated), the MIC was over 64 mg/L in the test on Escherichia coli [1], 32 mg/L (≈ 75.7 µM) in the test on Escherichia coli [2] and 16 mg/L (≈ 37.9 µM) against Staphylococcus aureus.
As to `C/C(=N\NC(=N)N)c1sc(-c2ccc(OCCCN3CCOCC3)cc2)nc1C`, the MIC in the test on Escherichia coli [1] was over 64 mg/L; with Escherichia coli [2], over 64 mg/L; in the test with Staphylococcus aureus, 64 mg/L (≈ 154 µM).
As for `C/C(=N\NC(=N)N)c1sc(-c2ccc(OCCCCN3CCCCCC3)cc2)nc1C`, the MIC against Escherichia coli [1], in the test with Escherichia coli [2] and with Staphylococcus aureus was over 64 mg/L in each case.
With `C/C(=N\NC(=N)N)c1sc(-c2ccc(OCCCCN3CCCC3)cc2)nc1C`, the MIC with Escherichia coli [1], in the test with Escherichia coli [2] and against Staphylococcus aureus was over 64 mg/L each time.
For `C/C(=N\NC(=N)N)c1sc(-c2ccc(OCCCCN3CCCC(C)C3)cc2)nc1C` (configuration not stated), the MIC in the test with Escherichia coli [1], with Escherichia coli [2] and in the test with Staphylococcus aureus was over 64 mg/L each time.
On to `C/C(=N\NC(=N)N)c1sc(-c2ccc(OCCCN3CCCC3)cc2)nc1C`, for which the values for the MIC with Escherichia coli [1], against Escherichia coli [2] and against Staphylococcus aureus were over 64 mg/L, 32 mg/L (≈ 79.9 µM) and 16 mg/L (≈ 39.9 µM), respectively.
Consider `C/C(=N\NC(=N)N)c1sc(-c2ccc(OCCCCN3CCN(C)CC3)cc2)nc1C`, for which the MIC against Escherichia coli [1] was over 64 mg/L; against Escherichia coli [2], 32 mg/L (≈ 72.1 µM); with Staphylococcus aureus, 16 mg/L (≈ 36.1 µM).
Regarding `C/C(=N\NC(=N)N)c1sc(-c2ccc(OCCCCN3CCCCC3C)cc2)nc1C` (configuration not stated), the MIC with Escherichia coli [1], against Escherichia coli [2] and with Staphylococcus aureus was over 64 mg/L throughout.
In the case of `C/C(=N\NC(=N)N)c1sc(-c2ccc(OCCCCN3CCC4CCCCC4C3)cc2)nc1C` (configuration not stated), the MIC in the test on Escherichia coli [1], against Escherichia coli [2] and against Staphylococcus aureus was over 64 mg/L in each case.
For the compound `C/C(=N\NC(=N)N)c1sc(-c2ccc(OCCCCN3CCSC3)cc2)nc1C`, the MIC against Escherichia coli [1], against Escherichia coli [2] and against Staphylococcus aureus was over 64 mg/L throughout.
As to `C/C(=N\NC(=N)N)c1sc(-c2ccc(OCCCN3CCCC(C)C3)cc2)nc1C` (configuration not stated), the MIC in the test on Escherichia coli [1] is over 64 mg/L; against Escherichia coli [2], over 64 mg/L; against Staphylococcus aureus, 64 mg/L (≈ 149 µM).
Consider `C/C(=N\NC(=N)N)c1sc(-c2ccc(C#CCCN3CCCCCC3)cc2)nc1C`, for which the figures for the MIC in the test with Escherichia coli [1], against Escherichia coli [2] and in the test on Staphylococcus aureus were over 64 mg/L, 64 mg/L (≈ 151 µM) and 8 mg/L (≈ 18.9 µM), respectively.
On to `C/C(=N\NC(=N)N)c1sc(-c2ccc(OCCCN3CCCCC3)cc2)nc1C`, for which the figures for the MIC in the test on Escherichia coli [1], with Escherichia coli [2] and in the test on Staphylococcus aureus were over 64 mg/L, 64 mg/L (≈ 154 µM) and 32 mg/L (≈ 77.2 µM), respectively.
As to `C/C(=N\NC(=N)N)c1sc(-c2ccc(OCCCn3ccnc3)cc2)nc1C`, the MIC against Escherichia coli [1] was over 64 mg/L; with Escherichia coli [2], over 64 mg/L; in the test with Staphylococcus aureus, 32 mg/L (≈ 80.5 µM).
For the compound `C/C(=N\NC(=N)N)c1sc(-c2ccc(C#CCCN3CCN(C)CC3)cc2)nc1C`, the MIC with Escherichia coli [1] is over 64 mg/L; against Escherichia coli [2], 32 mg/L (≈ 75.5 µM); in the test with Staphylococcus aureus, 16 mg/L (≈ 37.8 µM).
`C/C(=N\NC(=N)N)c1sc(-c2ccc(OCCCN3CCC4CCCCC4C3)cc2)nc1C` (configuration not stated): the results for the MIC against Escherichia coli [1], against Escherichia coli [2] and against Staphylococcus aureus were over 64 mg/L, over 64 mg/L and 64 mg/L (≈ 137 µM), respectively.
As for `C/C(=N\NC(=N)N)c1sc(-c2ccc(OCCCN3CCSC3)cc2)nc1C`, the MIC against Escherichia coli [1] is over 64 mg/L; against Escherichia coli [2], 32 mg/L (≈ 76.4 µM); against Staphylococcus aureus, 16 mg/L (≈ 38.2 µM).
On to `C/C(=N\NC(=N)N)c1sc(-c2ccc(OCCCCCN3CCC(C)CC3)cc2)nc1C`, for which the MIC against Escherichia coli [1] was over 64 mg/L; with Escherichia coli [2], 64 mg/L (≈ 140 µM); with Staphylococcus aureus, 32 mg/L (≈ 70.1 µM).
Turning to `C/C(=N\NC(=N)N)c1sc(-c2ccc(OCCCCCN3CCC3)cc2)nc1C`, the figures for the MIC against Escherichia coli [1], in the test on Escherichia coli [2] and against Staphylococcus aureus were over 64 mg/L, 64 mg/L (≈ 154 µM) and 32 mg/L (≈ 77.2 µM), respectively.
With `C/C(=N\NC(=N)N)c1sc(-c2ccc(C#CCCN3CCCC3)cc2)nc1C`, the MIC with Escherichia coli [1] was over 64 mg/L; against Escherichia coli [2], over 64 mg/L; against Staphylococcus aureus, 16 mg/L (≈ 40.6 µM).
As for `C/C(=N\NC(=N)N)c1sc(-c2ccc(OCCCCCN3CCCC(C)C3)cc2)nc1C` (configuration not stated), the MIC against Escherichia coli [1] was over 64 mg/L; in the test on Escherichia coli [2], 64 mg/L (≈ 140 µM); with Staphylococcus aureus, 32 mg/L (≈ 70.1 µM).
With `C/C(=N\NC(=N)N)c1sc(-c2ccc(OCCCN3CCC(C)CC3)cc2)nc1C`, the MIC against Escherichia coli [1], in the test with Escherichia coli [2] and with Staphylococcus aureus was over 64 mg/L each time.
As to `C/C(=N\NC(=N)N)c1sc(-c2ccc(OCCCN3CCCCC3C)cc2)nc1C` (configuration not stated), the results for the MIC against Escherichia coli [1], against Escherichia coli [2] and with Staphylococcus aureus were over 64 mg/L, over 64 mg/L and 64 mg/L (≈ 149 µM), respectively.
Consider `C/C(=N\NC(=N)N)c1sc(-c2ccc(OCCCCN3CCC3)cc2)nc1C`, for which the MIC in the test on Escherichia coli [1] was over 64 mg/L; against Escherichia coli [2], 16 mg/L (≈ 39.9 µM); against Staphylococcus aureus, 8 mg/L (≈ 20 µM).
For `C/C(=N\NC(=N)N)c1sc(-c2ccc(OCCCCN3CCOCC3)cc2)nc1C`, the MIC against Escherichia coli [1], against Escherichia coli [2] and in the test with Staphylococcus aureus was over 64 mg/L each time.
As for `C/C(=N\NC(=N)N)c1sc(-c2ccc(OCCCCCN3CCCC3)cc2)nc1C`, the MIC against Escherichia coli [1], with Escherichia coli [2] and against Staphylococcus aureus was over 64 mg/L in each case.
For the compound `C/C(=N\NC(=N)N)c1sc(-c2ccc(C#CCCN3CCOCC3)cc2)nc1C`, the MIC is over 64 mg/L in the test with Escherichia coli [1], 64 mg/L (≈ 156 µM) against Escherichia coli [2] and 32 mg/L (≈ 77.9 µM) with Staphylococcus aureus.
Take `C/C(=N\NC(=N)N)c1sc(-c2ccc(OCCCN3CCCCCC3)cc2)nc1C`: the MIC with Escherichia coli [1] was over 64 mg/L; against Escherichia coli [2], over 64 mg/L; in the test with Staphylococcus aureus, 64 mg/L (≈ 149 µM).
Turning to `C/C(=N\NC(=N)N)c1sc(-c2ccc(OCCCN3CCSCC3)cc2)nc1C`, the MIC in the test on Escherichia coli [1] was over 64 mg/L; against Escherichia coli [2] it was 64 mg/L (≈ 148 µM); with Staphylococcus aureus, 32 mg/L (≈ 74 µM).
For the compound `C/C(=N\NC(=N)N)c1sc(-c2ccc(OCCCN3CCN(C)CC3)cc2)nc1C`, the MIC in the test with Escherichia coli [1], against Escherichia coli [2] and against Staphylococcus aureus was over 64 mg/L in each case.
For the compound `C/C(=N\NC(=N)N)c1sc(-c2ccc(C#CCCN3CCSCC3)cc2)nc1C`, the MIC is over 64 mg/L against Escherichia coli [1], 16 mg/L (≈ 37.5 µM) in the test on Escherichia coli [2] and 32 mg/L (≈ 75 µM) in the test on Staphylococcus aureus.
Regarding `C/C(=N\NC(=N)N)c1sc(-c2ccc(OCCCCCN3CCC4CCCCC4C3)cc2)nc1C` (configuration not stated), the MIC against Escherichia coli [1], with Escherichia coli [2] and in the test with Staphylococcus aureus was over 64 mg/L in each case.
Take `C/C(=N\NC(=N)N)c1sc(-c2ccc(OCCCCCN3CCCCC3C)cc2)nc1C` (configuration not stated): the MIC is over 64 mg/L against Escherichia coli [1], 32 mg/L (≈ 70.1 µM) with Escherichia coli [2] and 32 mg/L (≈ 70.1 µM) against Staphylococcus aureus.
With `C/C(=N\NC(=N)N)c1sc(-c2ccc(C#CCCN3CCC(C)CC3)cc2)nc1C`, the values for the MIC in the test with Escherichia coli [1], against Escherichia coli [2] and against Staphylococcus aureus were over 64 mg/L, over 64 mg/L and 16 mg/L (≈ 37.9 µM), respectively.
Regarding `C/C(=N\NC(=N)N)c1sc(-c2ccc(OCCCCn3ccnc3)cc2)nc1C`, the values for the MIC in the test on Escherichia coli [1], with Escherichia coli [2] and with Staphylococcus aureus were over 64 mg/L, 32 mg/L (≈ 77.8 µM) and 16 mg/L (≈ 38.9 µM), respectively.
Regarding `C/C(=N\NC(=N)N)c1sc(-c2ccc(OCCCCCN3CCSCC3)cc2)nc1C`, the MIC in the test with Escherichia coli [1], in the test with Escherichia coli [2] and in the test on Staphylococcus aureus was over 64 mg/L in each case.
As for `C/C(=N\NC(=N)N)c1sc(-c2ccc(OCCCCCN3CCCCCC3)cc2)nc1C`, the MIC with Escherichia coli [1], in the test with Escherichia coli [2] and with Staphylococcus aureus was over 64 mg/L in each case.
On to `C/C(=N\NC(=N)N)c1sc(-c2ccc(C#CCCN3CCCCC3)cc2)nc1C`, for which the MIC is over 64 mg/L against Escherichia coli [1], 32 mg/L (≈ 78.3 µM) with Escherichia coli [2] and 8 mg/L (≈ 19.6 µM) with Staphylococcus aureus.
Turning to `C/C(=N\NC(=N)N)c1sc(-c2ccc(OCCCN3CCC3)cc2)nc1C`, the MIC in the test on Escherichia coli [1] is over 64 mg/L; against Escherichia coli [2] it was 64 mg/L (≈ 166 µM); against Staphylococcus aureus it was 8 mg/L (≈ 20.7 µM).
Take `C/C(=N\NC(=N)N)c1sc(-c2ccc(C#CCCN3CCCC(C)C3)cc2)nc1C` (configuration not stated): the values for the MIC in the test on Escherichia coli [1], in the test with Escherichia coli [2] and against Staphylococcus aureus were over 64 mg/L, 64 mg/L (≈ 151 µM) and 8 mg/L (≈ 18.9 µM), respectively.
Turning to `C/C(=N\NC(=N)N)c1sc(-c2ccc(OCCCCCn3ccnc3)cc2)nc1C`, the MIC in the test with Escherichia coli [1], in the test on Escherichia coli [2] and against Staphylococcus aureus was over 64 mg/L each time.
For `C/C(=N\NC(=N)N)c1sc(-c2ccc(OCCCCN3CCCCC3)cc2)nc1C`, the MIC against Escherichia coli [1], in the test with Escherichia coli [2] and with Staphylococcus aureus was over 64 mg/L each time.
As to `C/C(=N\NC(=N)N)c1sc(-c2ccc(OCCCCCN3CCCCC3)cc2)nc1C`, the MIC was over 64 mg/L against Escherichia coli [1], 16 mg/L (≈ 36.1 µM) against Escherichia coli [2] and 16 mg/L (≈ 36.1 µM) in the test with Staphylococcus aureus.
